Source: ChEMBL document CHEMBL5154682, “TDP-43 Modulation by Tau-Tubulin Kinase 1 Inhibitors: A New Avenue for Future Amyotrophic Lateral Sclerosis Therapy” (J Med Chem, 2022)
Calls of active or inactive are those of the source. The calls are words filed in the database; no cut-off is given here.

Experiments:
[1] = Permeability of the compound at pH 7.4 PBS/EtOH buffer (70:30) by PAMPA-BBB assay
[2] = target: T1, Tau-tubulin kinase 2 (Homo sapiens, UniProt Q6IQ55); conditions: dose 10.0 µM, time 30.0 min
T1 sequence (Q6IQ55 whole entry): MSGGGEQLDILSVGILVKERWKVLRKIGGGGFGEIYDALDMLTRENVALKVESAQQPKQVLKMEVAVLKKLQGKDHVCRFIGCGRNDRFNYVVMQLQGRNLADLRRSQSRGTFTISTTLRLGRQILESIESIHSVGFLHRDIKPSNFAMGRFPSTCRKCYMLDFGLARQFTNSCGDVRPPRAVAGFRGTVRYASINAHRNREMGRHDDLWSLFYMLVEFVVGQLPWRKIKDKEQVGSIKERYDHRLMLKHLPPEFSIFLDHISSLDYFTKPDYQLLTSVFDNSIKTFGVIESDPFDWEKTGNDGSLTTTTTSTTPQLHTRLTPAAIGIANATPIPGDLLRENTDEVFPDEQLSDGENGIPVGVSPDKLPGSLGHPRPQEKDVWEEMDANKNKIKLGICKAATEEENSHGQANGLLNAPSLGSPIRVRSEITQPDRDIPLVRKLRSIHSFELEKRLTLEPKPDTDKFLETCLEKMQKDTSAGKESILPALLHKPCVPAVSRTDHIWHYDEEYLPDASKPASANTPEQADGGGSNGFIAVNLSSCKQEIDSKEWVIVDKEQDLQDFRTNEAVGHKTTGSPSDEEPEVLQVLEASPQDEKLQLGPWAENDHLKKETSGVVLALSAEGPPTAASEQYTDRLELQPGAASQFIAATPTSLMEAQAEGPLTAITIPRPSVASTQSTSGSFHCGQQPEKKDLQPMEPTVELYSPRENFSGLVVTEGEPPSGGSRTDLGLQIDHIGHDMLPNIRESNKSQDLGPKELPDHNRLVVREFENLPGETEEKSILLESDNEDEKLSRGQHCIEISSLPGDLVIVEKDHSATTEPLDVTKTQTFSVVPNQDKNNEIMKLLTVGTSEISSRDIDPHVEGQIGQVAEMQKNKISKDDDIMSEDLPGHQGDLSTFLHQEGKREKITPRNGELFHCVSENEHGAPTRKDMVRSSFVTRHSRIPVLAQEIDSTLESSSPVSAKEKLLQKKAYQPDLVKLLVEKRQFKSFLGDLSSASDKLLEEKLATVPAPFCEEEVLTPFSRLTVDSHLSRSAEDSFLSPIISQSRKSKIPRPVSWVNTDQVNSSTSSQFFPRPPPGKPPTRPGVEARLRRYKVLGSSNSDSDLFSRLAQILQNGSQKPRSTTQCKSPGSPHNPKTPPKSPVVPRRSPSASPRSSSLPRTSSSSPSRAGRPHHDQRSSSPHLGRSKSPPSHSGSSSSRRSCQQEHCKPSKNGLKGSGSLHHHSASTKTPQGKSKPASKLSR

[3] = target: T1, Tau-tubulin kinase 2
[4] = Selectivity index, ratio of IC50 for recombinant human TTBK1 to IC50 for recombinant human TTBK2
[5] = tested on: SH-SY5Y; experiment: Neuroprotective activity against okadaic acid-induced neurotoxicity in human SH-SY5Y cells assessed as reduction in Tau hyperphosphorylation by measuring cell viability at 1 to 5 uM incubated for 24 hrs by MTT assay; type: functional, cell-based; conditions: dose 1-5 µM
[6] = target: T2, Tau-tubulin kinase 1 (Homo sapiens, UniProt Q5TCY1)
T2 sequence (Q5TCY1 whole entry): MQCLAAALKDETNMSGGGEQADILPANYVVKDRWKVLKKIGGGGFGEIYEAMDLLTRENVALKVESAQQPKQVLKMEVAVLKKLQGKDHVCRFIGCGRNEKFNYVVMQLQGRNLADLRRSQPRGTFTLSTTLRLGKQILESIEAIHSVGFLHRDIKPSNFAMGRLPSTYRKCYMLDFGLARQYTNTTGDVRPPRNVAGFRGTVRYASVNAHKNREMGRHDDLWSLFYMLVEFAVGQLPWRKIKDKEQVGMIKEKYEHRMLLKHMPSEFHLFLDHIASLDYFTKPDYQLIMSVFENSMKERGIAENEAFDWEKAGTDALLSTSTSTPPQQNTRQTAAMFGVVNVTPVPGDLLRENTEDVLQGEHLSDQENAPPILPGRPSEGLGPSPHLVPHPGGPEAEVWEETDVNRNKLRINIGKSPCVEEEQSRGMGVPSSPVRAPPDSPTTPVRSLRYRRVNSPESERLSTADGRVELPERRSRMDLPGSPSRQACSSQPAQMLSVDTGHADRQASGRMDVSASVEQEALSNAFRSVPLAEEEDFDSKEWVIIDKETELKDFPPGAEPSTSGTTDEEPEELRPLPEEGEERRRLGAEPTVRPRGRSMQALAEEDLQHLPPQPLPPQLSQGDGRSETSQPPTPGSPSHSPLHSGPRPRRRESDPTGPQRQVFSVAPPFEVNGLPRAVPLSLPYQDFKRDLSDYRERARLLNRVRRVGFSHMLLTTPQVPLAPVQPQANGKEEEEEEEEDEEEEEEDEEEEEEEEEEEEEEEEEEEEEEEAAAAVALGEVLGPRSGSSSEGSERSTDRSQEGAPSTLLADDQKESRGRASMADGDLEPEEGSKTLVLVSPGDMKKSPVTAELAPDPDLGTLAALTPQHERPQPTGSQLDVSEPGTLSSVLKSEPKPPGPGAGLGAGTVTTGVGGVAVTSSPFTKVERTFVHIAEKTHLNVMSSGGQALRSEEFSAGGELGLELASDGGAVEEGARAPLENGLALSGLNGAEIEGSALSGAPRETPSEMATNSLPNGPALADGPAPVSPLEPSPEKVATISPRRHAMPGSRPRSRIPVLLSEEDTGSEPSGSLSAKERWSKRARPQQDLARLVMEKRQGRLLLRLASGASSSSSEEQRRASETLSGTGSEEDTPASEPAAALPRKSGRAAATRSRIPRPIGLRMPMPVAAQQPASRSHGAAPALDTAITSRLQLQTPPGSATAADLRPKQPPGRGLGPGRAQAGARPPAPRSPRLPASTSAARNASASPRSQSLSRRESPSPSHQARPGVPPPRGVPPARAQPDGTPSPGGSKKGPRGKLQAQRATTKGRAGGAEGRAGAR

[7] = target: T2, Tau-tubulin kinase 1; conditions: dose 10.0 µM, time 30.0 min

Structure (SMILES) | permeability [1] | IC50 [3] [µM] | Selectivity Index [4] | IC50 [6] [µM] | further results
FC(F)(F)c1ccc(Oc2ccc(Nc3ncnc4[nH]ccc34)cc2)cc1 | – | – | – | – | inhibition [2]: 5%
Brc1ccc(Oc2ccc(Nc3ncnc4[nH]ccc34)cc2)cc1 | Permeable | – | – | – | –
c1cc(Nc2ncnc3[nH]ccc23)c2c(c1)OCO2 | Permeable | 7.58 | 0.21 | 1.58 | Activity [5]: Active
Oc1cccc(Nc2ncnc3[nH]ccc23)c1 | – | 6.7 | 0.9 | 6.1 | –
c1ccc(Nc2ncnc3[nH]ccc23)cc1 | Permeable | 1.68 | 0.47 | 0.79 | –
Clc1ccc(Oc2ccc(Nc3ncnc4[nH]ccc34)cc2)cc1Cl | Permeable | 5.72 | 0.4 | 2.3 | –
Oc1ccc(CCNc2ncnc3[nH]ccc23)cc1 | – | 37.7 | 0.33 | 12.8 | –
c1cc(Nc2ncnc3[nH]ccc23)cc(N2CCOCC2)c1 | – | 5.7 | 0.82 | 4.7 | –
c1cc2c(c(Nc3ncnc4[nH]ccc34)c1)CCCC2 | – | – | – | – | inhibition [7]: 23%; inhibition [2]: 10%
Clc1ccc(Nc2ncnc3[nH]ccc23)cc1 | – | 20.3 | 0.15 | 3.2 | –
Clc1ccc(Cn2cc(COc3ccc(Nc4ncnc5[nH]ccc45)cc3)nn2)cc1 | Impermeable | 2.87 | 0.21 | 0.61 | –
Nc1nc(Nc2ccc(Oc3ccc(C(F)(F)F)cc3)cc2)c2cc[nH]c2n1 | Permeable | – | 0.13 | 0.38 | Activity [5]: Active
CCOc1ccc(Nc2ncnc3[nH]ccc23)cc1 | Impermeable | 13.7 | 0.16 | 2.3 | Activity [5]: Active
CN1C(C(=O)Nc2ccccn2)=C(O)c2ccccc2S1(=O)=O [PIROXICAM] | Permeable | – | – | – | –
Oc1ccccc1Nc1ncnc2[nH]ccc12 | – | – | – | – | inhibition [7]: 14%; inhibition [2]: 1%
Oc1ccc(Nc2ncnc3[nH]ccc23)cc1 | – | 7.4 | 0.45 | 3 | –
CNCCCN1c2ccccc2CCc2ccccc21 [DESIPRAMINE] | Permeable | – | – | – | –
Clc1ccccc1Cn1cc(COc2ccc(Nc3ncnc4[nH]ccc34)cc2)nn1 | Impermeable | 2.75 | 0.13 | 0.36 | –
c1nc(Nc2ccc(N3CCOCC3)cc2)c2cc[nH]c2n1 | – | 15.7 | 0.3 | 4.9 | –
COC(=O)c1cc(Nc2ncnc3[nH]ccc23)ccc1Br | – | 4.2 | – | 2.2 | –
COc1ccc(Nc2ncnc3[nH]ccc23)cc1 | Impermeable | 1.32 | 0.39 | 0.52 | –
Clc1ccc(CNc2ncnc3[nH]ccc23)cc1 | – | – | – | – | inhibition [7]: 32%; inhibition [2]: 10%

Structure (SMILES) | permeability [1] | IC50 [3] [µM] | Selectivity Index [4] | IC50 [6] [µM] | further results
c1ccc(-n2cc(COc3ccc(Nc4ncnc5[nH]ccc45)cc3)nn2)cc1 | – | – | – | – | inhibition [7]: 29%; inhibition [2]: 1%
c1nc(NC2CCCCC2)c2cc[nH]c2n1 | – | – | – | – | inhibition [7]: 3%; inhibition [2]: 15%
CC(C)Oc1ccc(Nc2ncnc3[nH]ccc23)cc1 | Permeable | 8.4 | 0.17 | 1.5 | Activity [5]: Active
Oc1ccc(CNc2ncnc3[nH]ccc23)cc1 | – | – | – | – | inhibition [7]: 23%; inhibition [2]: 10%
Oc1ccc(Nc2ncnc3[nH]ncc23)cc1 | – | – | – | – | inhibition [7]: 3%; inhibition [2]: 1%
CC(=O)c1ccc(Nc2ncnc3[nH]ccc23)cc1 | – | 9.3 | 0.46 | 4.3 | –
c1ccc(Nc2ncnc3sccc23)cc1 | – | – | – | – | inhibition [7]: 17%
Clc1ccc(Nc2ncnc3[nH]ncc23)cc1 | – | – | – | – | inhibition [7]: 8%; inhibition [2]: 1%
c1ccc(CCn2cc(COc3ccc(Nc4ncnc5[nH]ccc45)cc3)nn2)cc1 | Impermeable | 2.61 | 0.15 | 0.39 | –
Clc1cccc(Nc2ncnc3[nH]ccc23)c1 | – | 13.9 | 1.09 | 15.2 | –
Clc1ccccc1Nc1ncnc2[nH]ccc12 | – | 42.1 | 0.51 | 21.8 | –
c1cncc(Oc2ccc(Nc3ncnc4[nH]ccc34)cc2)c1 | Impermeable | 6.05 | 0.12 | 0.75 | –
Clc1cccc(Cn2cc(COc3ccc(Nc4ncnc5[nH]ccc45)cc3)nn2)c1 | Impermeable | 2.03 | 0.24 | 0.48 | –
O=C(c1ccc(Nc2ncnc3[nH]ccc23)cc1)c1ccc(Cl)c(Cl)c1 | – | – | – | – | inhibition [7]: 9%
Cc1ccc(Cn2cc(COc3ccc(Nc4ncnc5[nH]ccc45)cc3)nn2)cc1 | Impermeable | 1.75 | 0.57 | 0.99 | –
Oc1cccc(Nc2ncnc3[nH]ncc23)c1 | – | – | 0.22 | 9.15 | inhibition [2]: 13%
c1nc(Nc2ccc(N3CCOCC3)cc2)c2cn[nH]c2n1 | – | – | – | – | inhibition [7]: 25%; inhibition [2]: 12%
Clc1ccc(Nc2ncnc3sccc23)cc1 | – | – | – | – | inhibition [7]: 20%
FC(F)(F)c1cccc(Oc2ccc(Nc3ncnc4[nH]ccc34)cc2)c1 | – | – | – | – | inhibition [2]: 1%
FC(F)(F)Oc1ccc(Nc2ncnc3[nH]ccc23)cc1 | Impermeable | 8.8 | 0.11 | 1 | –
Clc1ccc(CCNc2ncnc3[nH]ccc23)cc1 | – | 86 | – | 18.2 | –

The next lines start with results.

permeability [1] | Structure (SMILES) | IC50 [3] [µM] | Selectivity Index [4] | IC50 [6] [µM] | further results
Permeable | O=[N+]([O-])c1ccc(Oc2ccc(Nc3ncnc4[nH]ccc34)cc2)cc1 | – | – | – | –
Permeable | Nc1ccc(Sc2ccc(Nc3ncnc4[nH]ccc34)cc2)cc1 | – | – | – | –
Permeable | CN(C)CCCN1c2ccccc2Sc2ccccc21 [PROMAZINE] | – | – | – | –
Permeable | COc1ccc(Oc2ccc(Nc3ncnc4[nH]ccc34)cc2)cc1 | – | – | – | –
Permeable | Fc1ccc(Oc2ccc(Nc3ncnc4[nH]ccc34)cc2)cc1 | – | 0.25 | – | –
Permeable | Cn1c(=O)c2c(ncn2C)n(C)c1=O [CAFFEINE] | – | – | – | –
Permeable | Cc1cccc(Oc2ccc(Nc3ncnc4[nH]ccc34)cc2)c1 | – | – | – | –
Permeable | Nc1nc(Nc2ccc(Oc3cccc(C(F)(F)F)c3)cc2)c2cc[nH]c2n1 | – | 0.33 | – | –
Permeable | O=C(c1ccc(F)cc1)c1ccc(Nc2ncnc3[nH]ccc23)cc1 | – | – | – | –
Permeable | Nc1nc(Nc2ccc(Oc3cccc(Cl)c3)cc2)c2cc[nH]c2n1 | – | 0.12 | – | –
Permeable | Nc1nc(Nc2ccc(Oc3ccc(Cl)cc3)cc2)c2cc[nH]c2n1 | – | – | – | –
Permeable | CCn1cc(C(=O)O)c(=O)c2cc(F)c(N3CCNCC3)nc21 [ENOXACIN] | – | – | – | –
Permeable | COc1cccc(Oc2ccc(Nc3ncnc4[nH]ccc34)cc2)c1 | – | – | – | Activity [5]: Active
Permeable | c1ccc(Oc2ccc(Nc3ncnc4[nH]ccc34)cc2)cc1 | – | – | – | –
Permeable | Clc1ccccc1Oc1ccc(Nc2ncnc3[nH]ccc23)cc1 | – | – | – | –
Permeable | c1ccc(COc2ccc(Nc3ncnc4[nH]ccc34)cc2)cc1 | – | – | – | –
Permeable | O=C(c1ccccc1)c1ccc(Nc2ncnc3[nH]ccc23)cc1 | – | – | – | Activity [5]: Active
